According to patent publication US7507749B2, “Antitumor agents” (priority 2001, dated 2009):

Experiments:
[1] = tested on: mammary adenocarcinoma-17/Adr; experiment: Test E: R-enantiomer of compound 22b and compound 22a against early stage mammary adenocarcinoma-17/Adr; assay type: in vivo
Method: Then, P.B.S. was added and the pH adjusted to 7 with HCl. A volume of 0.2 ml per injection was administered to animals intravenously. […] Then, P.B.S. was added and the pH was adjusted to 7 with HCl. A volume of 0.2 ml per injection was administered to animals intravenously.

[2] = tested on: mammary adenocarcinoma-16/C; experiment: Test F: R-enantiomers of 22b and 22c against early staged mammary adenocarcinoma-16/C; assay type: in vivo, C3H female mice
Method: C3H female mice were obtained from N.C.I. (D.O.B. was […]; D.O.A. was Jan. 27, 2001). The mice weighed an average of 19.2 gm. Mice were implanted SC with mammary adenocarcinoma-16/C passage-170, a fast growing, highly invasive, highly metastatic tumor (D.O.T. was Mar. 8, 2001; Td was 1.2 days).
The R-enantiomers of both Compound 22c and Compound 22b were each suspended in 3% ethanol, 1% POE-80, 0.5% sodium bicarbonate (by volume) to effect solution, P.B.S. was then added and the pH adjusted to 7 with HCl. Adriamycin (ADRIA; lot number 20338c) was suspended in dH2O to effect solution and the pH was adjusted to 6.0. Mice were administered 0.2 ml per IV injection.

[3] = tested on: pancreatic ductal adenocarcinoma-03; assay type: in vivo
Method: BDF1 female mice were obtained from N.C.I., CRL-Ral (D.O.B. was Feb. 26, 2001; D.O.A. was Mar. 10, 2001). The mice weighed an average of 22.5 gm. Mice were implanted SC with pancreatic ductal adenocarcinoma-03 passage 143. (D.O.T. was May 29, 2001; Td was 2.3 days).
The R-enantiomer of compound 22c was suspended in 3% ethanol, 1% POE-80, 0.25% sodium bicarbonate (by volume) to effect solution. dH2O was then added, and the pH adjusted to 7 with HCl. […] The R-enantiomer of compound 22b was suspended in 3% ethanol, 1% POE-80, 0.5% sodium-bicarbonate (by volume) to effect solution. Then, dH2O was added, and the pH adjusted to 7.5 with HCl. […] Adriamycin (source ADRIA; lot 2033BC) was suspended in dH2O to effect solution, and the pH was 6.0.
Treatment began six days following implant, at which time the tumors were palpable size (126 mg median). The duration of treatment was prolonged (18 days) in order to obtain a clear separation in efficacy between the compounds.

colon carcinoma 26 = tested on: colon carcinoma 26
Method: In this trial the R-enantiomers of XK-469, compound 22c, and compound 22b were compared against advanced staged colon carcinoma 26 in female Balb/c mice. […] Cage #2 was 22b at 400 mg/kg and Cage #4 was 22c at 400 mg/kg.
The XK469-R, 22b, and 22c compound doses were all prepared the same, using 3% ethanol, 1% POE-80, and 0.5% sodium bicarbonate. The injection volume was 0.2 mu/mouse IV. […] The mice were Balb/c female mice: DOB Feb. 12, 2001; DOA Mar. 27, 2001; DOT Sep. 8, 2001, with an average body weight of 24.7 grams at the start of Rx administration. The tumor was Colon Carcinoma-26 passage 141; date of implant Sep. 8, 2001, and implanted at 30 to 60 mg fragments bilaterally SC. All tumors were 63 to 171 mg on day 6, the day of first Rx.

[4] = Cage 3, IV 36 mg/kg day 1, 48 mg/kg/inj qd 2-7, total 324 mg/kg
[5] = Cage 4, IV 7 inj, total 162 mg/kg
[6] = Cage 5, IV 7 inj, total 81 mg/kg
[7] = Cage 2, IV 65 mg/kg/inj qd 1-4, total 260 mg/kg
[8] = Cage 3, IV 65 mg/kg/inj days 1,3,5,7, total 260 mg/kg
[9] = Cage 3, IV 65 mg/kg/inj days 1,3,5,7, total 260 mg/kg, listed as R-enantiomer of compound 22c
[10] = Cage 4, IV 40 mg/kg/inj days 1,3,5,7, total 160 mg/kg
[11] = Cage 4, IV 40 mg/kg/inj days 1,3,5,7, total 160 mg/kg, listed as R-enantiomer of compound 22c
[12] = Cg 13 in table (Cage 12 in text), IV 80 mg/kg/inj days 6,9,12,15,18,21, total 480 mg/kg

CC(Oc1ccc(Oc2ccc3ccc(F)cc3n2)cc1)C(=O)O (racemic) [Compound 22a, 2-[4-(7-fluoroquinolin-2-yloxy)phenoxy]propanoic acid] was tested, and the “% Body Wt Loss at Nadir” value [1, 4] was −1.6%, the “% T/C mass” value [1, 4] was 14% and the “Activity Rating” value [1, 4] was “++ (1.3-1.9)”. For the same compound, the “Day of Nadir” value [1, 4] was 5 days, the “Drug Deaths” value [1, 4] was 0/5 and the “Growth Delay” value [1, 4] was 5 days. For the same compound, the “Log Kill” value [1, 4] was 1.5, the “Median Tumor Mass on day 9 (Range)” value [1, 4] was 138 (63-207) mg and the “Tumor Free day-23” value [1, 4] was 0/5. The Neuromuscular toxicity ([1]; Cage 3, IV 48 mg/kg/inj, limits higher individual dosages) was “severe neuromuscular toxicity”, the “Duration of leg dysfunction (front legs)” value ([1]; Cage 3, IV 48 mg/kg/inj, longer for the rear legs) was 15 min and the “% Body Wt Loss at Nadir” value [1, 5] was −1.5%. For the same compound, the “% T/C mass” value [1, 5] was greater than 100%, the “Activity Rating” value [1, 5] was “inactive” and the “Day of Nadir” value [1, 5] was 5 days. For the same compound, the “Drug Deaths” value [1, 5] was 0/5, the “Growth Delay” value [1, 5] was 1 days and the “Log Kill” value [1, 5] was 0.3. For the same compound, the “Median Tumor Mass on day 9 (Range)” value [1, 5] was 975 (252-1836) mg, the “Tumor Free day-23” value [1, 5] was 0/5 and the “% Body Wt Loss at Nadir” value [1, 6] was −3.0%. For the same compound, the “% T/C mass” value [1, 6] was 77%, the “Activity Rating” value [1, 6] was “inactive” and the “Day of Nadir” value [1, 6] was 5 days. For the same compound, the “Drug Deaths” value [1, 6] was 0/5, the “Growth Delay” value [1, 6] was 1 days and the “Log Kill” value [1, 6] was 0.3. The “Median Tumor Mass on day 9 (Range)” value [1, 6] was 743 (725-1413) mg and the “Tumor Free day-23” value [1, 6] was 0/5.
For C[C@@H](Oc1ccc(Oc2ccc3ccc(Br)cc3n2)cc1)C(=O)O [Compound R-22c], the “% Body Wt Loss at Nadir” value [2, 7] was −22.9%, the “% T/C mass” value [2, 7] was “toxic” and the “Activity Rating” value [2, 7] was “toxic”. The Cause of death [2, 7] was “G.I. epithelial damage”, the “Day of Nadir” value [2, 7] was 6 days and the “Drug Deaths” value [2, 7] was 5/5. For the same compound, the “Growth Delay in Days” value [2, 7] was “toxic”, the “Log Kill” value [2, 7] was “toxic” and the “Median Tumor Mass on Day 10 (Range)” value [2, 7] was “toxic”. The “Median time for tumors to 1000 mg (range)” value [2, 7] was “toxic”, the Neuromuscular toxicity [2, 7] was “No neuromuscular toxicity” and the “Tumor Free day-155” value [2, 7] was 0/5. For the same compound, the “Drug Deaths” value ([2]; Cage 2, IV 65 mg/kg/inj qd 1-4, total 260 mg/kg, listed as R-enantiomer of compound 22c) was “All the mice died”, the “% Body Wt Loss at Nadir” value [2, 8] was −8.3% and the “% T/C mass” value [2, 8] was 4%. For the same compound, the “Activity Rating” value [2, 8] was “++ (1.3-1.9)”, the “Day of Nadir” value [2, 8] was 9 days and the “Day of full recovery of body weight” value [2, 8] was 12 days. For the same compound, the “Drug Deaths” value [2, 8] was 0/5, the “Growth Delay” value [2, 8] was 5.8 days and the “Log Kill” value [2, 8] was 1.7. For the same compound, the “Median Tumor Mass on Day 10 (Range)” value [2, 8] was 63 mg, the “Median time for tumors to 1000 mg (range)” value [2, 8] was 15.3 (14-21.5) days and the Neuromuscular toxicity [2, 8] was “no neuromuscular toxicity”. For the same compound, the “Tumor Free day-155” value [2, 8] was 0/5, the “% Body Wt Loss at Nadir” value [2, 9] was −8.3% and the “% T/C mass” value [2, 9] was 4%. The “Drug Deaths” value [2, 9] was “no deaths”, the “% Body Wt Loss at Nadir” value [2, 10] was “+6.4%” and the “% T/C mass” value [2, 10] was 9%. The “Activity Rating” value [2, 10] was “++ (1.3-1.9)”, the “Day of Nadir” value [2, 10] was 8 days and the “Drug Deaths” value [2, 10] was 0/5. For the same compound, the “Growth Delay” value [2, 10] was 4.7 days, the “Log Kill” value [2, 10] was 1.4 and the “Median Tumor Mass on Day 10 (Range)” value [2, 10] was 138 mg. For the same compound, the “Median time for tumors to 1000 mg (range)” value [2, 10] was 14.2 (12.5-16.7) days, the “Tumor Free day-155” value [2, 10] was 1/5 and the “% Body Wt Loss at Nadir” value [2, 11] was “+6.4%”. For the same compound, the “% T/C mass” value [2, 11] was 9%, the Neuromuscular toxicity ([2]; whole trial (Test F), IV) was “completely devoid of neuromuscular toxicity” and the Behavior post injection ([3]; Cage 12 in text, IV 80 mg/kg/inj, lasted only a few minutes) was “agitated post IV injection”. For the same compound, the Neuromuscular toxicity ([3]; Cage 12 in text, IV 80 mg/kg/inj, total 480 mg/kg) was “no neuromuscular toxicity”, the “% Body Wt change between day 6 and day 24” value [3, 12] was “+5.9%” and the “% T/C mass” value [3, 12] was 2.8%. For the same compound, the “Activity Rating” value [3, 12] was “++++ (>2.8)”, the “CR's” value [3, 12] was 3/4 and the “Drug Deaths” value [3, 12] was 0/4. The “Growth Delay” value [3, 12] was 23.5 days, the “Log Kill” value [3, 12] was 3.1 and the “Median Tumor Mass on Day 24 (Range)” value [3, 12] was 63 mg. The “Median time for tumors to 1,000 mg (range)” value [3, 12] was 40 days, the “PR's” value [3, 12] was 3/4 and the “Tumor Free day-157” value [3, 12] was 0/4. For the same compound, the “Drug Deaths” value (colon carcinoma 26; Cg 5, IV 50 mg/kg/inj days 6,8,10,13,15, total 250 mg/kg) was 0/6, the “% Body Wt change at nadir” value (colon carcinoma 26; mouse, in vivo) was −8.1% (17) and the “Activity Rating” value (colon carcinoma 26; mouse, in vivo) was “++++ (key: ++++: >2.8; +++: 2.0-2.8; ++: 1.3-1.9; +: 0.7-1.2; −: <0.7)”. The “CR's” value (colon carcinoma 26; mouse, in vivo) was 3/6, the “Growth Delay in Days” value (colon carcinoma 26; mouse, in vivo) was 3/6 and the “Log Kill” value (colon carcinoma 26; mouse, in vivo) was greater than 3.5. For the same compound, the “Median time for tumors to 700 mg (range)” value (colon carcinoma 26; mouse, in vivo) was 3/6 tumor free, the “PR's” value (colon carcinoma 26; mouse, in vivo) was 3/6 and the “Tumor Free day-156” value (colon carcinoma 26; mouse, in vivo) was 3/6. The day of nadir (colon carcinoma 26; mouse, in vivo) was −8.1% (17) day.
